Laboratory results from US9296734B2 (AMGEN INC., priority 2013, dated 2016).
Where two headings read alike, the source gives them in different places.

Columns and labels:
Cathepsin D (Cat D) = Cathepsin D (Cat D) (Homo sapiens (Human), UniProt P07339); experiment: In vitro enzymatic Cathepsin D (Cat D) FRET assay; type: biochemical; conditions: read-out: CatD IC50
Method in brief: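 CHO-expressed recombinant Cat D cleaves a fluorophore/quencher FRET peptide (20 nM) in 0.05 M citrate pH 3.5, 5 mM CHAPS, 10% DMSO final, over 1 h. Tris addition neutralizes pH to stop the reaction; fluorescence read at excitation 500 nm, emission 580 nm.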

[1] = system: Aβ40 in conditioned medium of cells stably expressing Amyloid Precursor Protein (APP); experiment: In vitro BACE cell-based assay (Aβ40 sandwich ELISA); conditions: Homo sapiens, read-out: HEK cell assay IC50
Method in brief: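 Aβ40 in supernatants was measured by time-resolved fluorescence sandwich ELISA using pAb40 capture and biotinylated 6E10 detection, with antibody incubations at 4 °C. Stable APP cells were exposed to compounds for 24 h in a 10-point series (top dose 100 or 10 µM, 0.1% DMSO). IC50 was fitted from the concentration-response.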

[2] = system: Abeta 40 in CSF and brain; experiment: In vivo inhibition of beta-secretase: Abeta 40 reduction in CSF and brain of the rat; conditions: 10 mpk (unless otherwise noted), after 4 hrs
Excerpt: In Vivo Inhibition of Beta-Secretase
Several animal models, including mouse, rat, dog, and monkey, may be used to screen for inhibition of beta-secretase activity in vivo following administration of a test compound sample. Animals used in this invention can be wild type, transgenic, or gene knockout animals. […] A separate group of animals receive 2% hydroxypropyl methylcellulose, 1% Tween80 alone, containing no test compound, and serve as a vehicle-control group. At the end of the test period, animals are sacrificed and brain tissues, plasma or cerebrospinal fluid are collected. […] Homogenates are centrifuged at 355,000 g, 4° C. for 30 minutes. CSF or brain supernatants are then analyzed for the presence of A-beta peptide by specific sandwich ELISA assays based on ECL (Electrochemiluminescence) technology. For example, rat Abeta40 is measured using biotinylated-4G8 (Signet) as a capture antibody and Fab40 (an in-house antibody specific to the C-terminal of Abeta40) as a detection antibody.
Actual vehicles used: Oral: 2% HPMC, 1% Tween80, pH 2.2

[3] = molecular target: Beta Secretase enzyme (BACE) (Homo sapiens (Human), UniProt P56817); experiment: In vitro enzymatic BACE FRET assay; type: biochemical; conditions: read-out: BACE 1 FRET assay IC50
Sequence of Beta Secretase enzyme (BACE) (P56817 46-501): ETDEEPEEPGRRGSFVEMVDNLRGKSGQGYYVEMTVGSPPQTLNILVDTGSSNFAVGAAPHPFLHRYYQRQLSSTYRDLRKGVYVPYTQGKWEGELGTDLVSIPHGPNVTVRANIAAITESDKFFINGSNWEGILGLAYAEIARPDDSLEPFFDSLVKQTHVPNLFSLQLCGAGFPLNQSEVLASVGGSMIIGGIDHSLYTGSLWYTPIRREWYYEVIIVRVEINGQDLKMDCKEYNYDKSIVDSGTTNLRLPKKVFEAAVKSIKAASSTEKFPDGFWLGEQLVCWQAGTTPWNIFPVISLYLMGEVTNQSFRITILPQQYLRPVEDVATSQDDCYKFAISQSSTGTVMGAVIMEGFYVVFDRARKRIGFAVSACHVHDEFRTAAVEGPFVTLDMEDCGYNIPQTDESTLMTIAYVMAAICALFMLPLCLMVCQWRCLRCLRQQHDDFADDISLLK
Method in brief: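 A quenched fluorophore-peptide spanning the BACE cleavage site served as substrate at 50 nM, with one-hour incubation in pH 4.2 acetate buffer containing 100 uM genapol and 10% DMSO final. Fluorescence was measured after quenching with Tris to neutral pH.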

CSF Aβ40 = conditions: healthy individuals, 36 h post-dose, cited from earlier work
[4] = higher compound dose given for three months; cited from earlier work
Aβ in lumbar CSF = conditions: healthy volunteers, oral dosing of 30 or 90 mg; cited from earlier work
[5] = HEK293, average IC50, HEK cells
[6] = Abeta 40, rat CSF, read-out: % reduction of rat CSF levels at 10 pmk
[7] = Abeta 40, rat brain, read-out: % reduction of rat brain levels at 10 mpk
[8] = average IC50, cathepsin D enzyme assay
[9] = HEK293, average IC50, HEK cell assay
[10] = average IC50, BACE enzyme assay

Sequence of Cathepsin D (Cat D) (P07339 65-412, species assumed): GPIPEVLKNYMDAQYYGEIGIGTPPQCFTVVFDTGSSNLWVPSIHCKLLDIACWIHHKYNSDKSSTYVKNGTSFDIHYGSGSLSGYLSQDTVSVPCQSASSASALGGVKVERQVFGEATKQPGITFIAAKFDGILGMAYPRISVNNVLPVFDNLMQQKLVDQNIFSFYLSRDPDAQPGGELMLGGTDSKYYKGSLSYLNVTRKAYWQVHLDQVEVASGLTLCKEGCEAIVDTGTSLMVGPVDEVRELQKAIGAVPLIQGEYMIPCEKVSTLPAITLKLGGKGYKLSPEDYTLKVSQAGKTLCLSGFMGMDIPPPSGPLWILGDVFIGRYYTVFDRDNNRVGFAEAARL

| SMILES | IC50 (Cathepsin D (Cat D); [8]) [µM] | IC50 [1, 9] [µM] | IC50 [3, 10] [µM] | inhibition in vivo at 10 mg/kg [2, 6] [%] | inhibition in vivo at 10 mg/kg [2, 7] [%] | further results |
| --- | --- | --- | --- | --- | --- | --- |
| COc1cnc(C(=O)Nc2ccc(F)c([C@]3(CF)C[C@@H](C(F)(F)F)OC(N)=N3)c2)c(Cl)c1 [Example 50, N-(3-((4S,6S)-2-amino-4-(fluoromethyl)-6-(trifluoromethyl)-5,6-dihydro-4H-1,3-oxazin-4-yl)-4-fluorophenyl)-3-chloro-5-methoxypicolinamide] | – | – | – | 50 | 22 | IC50 (Cathepsin D (Cat D); average IC50): > 400 µM; IC50 [1, 5]: 0.0265 µM; IC50 ([3]; average IC50): 0.0238 µM |
| C[C@@]1(c2cc(NC(=O)c3ccc(Cl)cn3)cnc2F)C[C@@H](C(F)(F)F)OC(N)=N1 [Example 60, N-(5-((4S,6S)-2-amino-4-methyl-6-(trifluoromethyl)-5,6-dihydro-4H-1,3-oxazin-4-yl)-6-fluoropyridin-3-yl)-5-chloropicolinamide] | – | – | – | 79 | 72 | IC50 (Cathepsin D (Cat D); average IC50): > 400 µM; IC50 [1, 5]: 0.0135 µM; IC50 ([3]; average IC50): 0.0528 µM |
| CN1C(=N)N[C@](C)(c2cc(NC(=O)c3ccc(F)cn3)ccc2F)CS1(=O)=O [MK-8931] | – | – | – | – | – | reduction of CSF Aβ40 concentrations (CSF Aβ40; single dose of 100 mg): 75%; reduction of CSF Aβ40 concentrations (CSF Aβ40; single dose of 550 mg): 92% |
| C#CCOc1cnc(C(=O)Nc2cc(F)c(F)c([C@]3(CF)C[C@@H](C(F)(F)F)OC(N)=N3)c2)cn1 [Example 154, N-(3-((4S,6S)-2-amino-4-(fluoromethyl)-6-(trifluoromethyl)-5,6-dihydro-4H-1,3-oxazin-4-yl)-4,5-difluorophenyl)-5-(prop-2-yn-1-yloxy)pyrazine-2-carboxamide] | > 400 | 0.0096 | 0.0014 | 67 | 71 | – |
| C[C@@]1(c2cc(-c3cncnc3)c(F)cc2F)CCSC(N)=N1 [LY 2811376] | – | – | – | – | – | rat toxicology finding [4]: damaged the pigment epithelium of the rat's eye |
| Cc1cc(NC(=O)c2ccc(Cl)cn2)cc([C@]2(CF)C[C@@H](C(F)(F)F)OC(N)=N2)c1F [Example 224, N-(3-((4S,6S)-2-amino-4-(fluoromethyl)-6-(trifluoromethyl)-5,6-dihydro-4H-1,3-oxazin-4-yl)-4-fluoro-5-methylphenyl)-5-chloropicolinamide] | – | – | – | 62 | 51 | IC50 (Cathepsin D (Cat D); average): 515 µM; IC50 ([1]; HEK293, HEK cells, average): 0.007 µM; IC50 ([3]; average): 0.013 µM |
| C[C@@]1(c2nc(NC(=O)c3ccc(C#N)cn3)ccc2F)C[C@@H](C(F)(F)F)OC(N)=N1 [Example 79, N-(6-((4S,6S)-2-amino-4-methyl-6-(trifluoromethyl)-5,6-dihydro-4H-1,3-oxazin-4-yl)-5-fluoropyridin-2-yl)-5-cyanopicolinamide] | – | – | – | 83 | 79 | IC50 (Cathepsin D (Cat D); average IC50): > 400 µM; IC50 [1, 5]: 0.0115 µM; IC50 ([3]; average IC50): 0.0304 µM |
| N#Cc1cnc(C(=O)Nc2ccc(F)c([C@]3(CF)C[C@@H](C(F)(F)F)OC(N)=N3)c2)c(Cl)c1 [Example 32, N-(3-((4S,6S)-2-amino-4-(fluoromethyl)-6-(trifluoromethyl)-5,6-dihydro-4H-1,3-oxazin-4-yl)-4-fluorophenyl)-3-chloro-5-cyano-2-pyridinecarboxamide] | – | – | – | 21 | -3 | IC50 (Cathepsin D (Cat D); average IC50): > 400 µM; IC50 [1, 5]: 0.0544 µM; IC50 ([3]; average IC50): 0.0285 µM |
| C[C@@]1(c2cc(-c3cncnc3)c(F)cc2F)CCSC(N)=N1 [LY2811376, (S)-4-(2,4-difluoro-5-pyrimidin-5-yl-phenyl)-4-methyl-5,6-dihydro-4H-[1,3]thiazin-2-ylamine] | – | – | – | – | – | Aβ reductions in lumbar CSF (Aβ in lumbar CSF): Prominent and long-lasting Aβ reductions in lumbar CSF |
| COc1ccc(C(=O)Nc2cc(F)c(F)c([C@]3(C)C[C@@H](C(F)(F)F)OC(N)=N3)c2)nc1 [Example 201, N-(3-((4S,6S)-2-amino-4-methyl-6-(trifluoromethyl)-5,6-dihydro-4H-1,3-oxazin-4-yl)-4,5-difluorophenyl)-5-methoxypicolinamide] | – | – | – | 75 | 76 | IC50 (Cathepsin D (Cat D); average): 762 µM |
| NC1=N[C@](CF)(c2cc(NC(=O)c3ccc(Cl)cn3)ccc2F)C[C@@H](C(F)(F)F)O1 [Example 3, N-(3-((4S,6S)-2-amino-4-(fluoromethyl)-6-(trifluoromethyl)-5,6-dihydro-4H-1,3-oxazin-4-yl)-4-fluorophenyl)-5-chloropicolinamide] | – | – | – | 72 | 58 | IC50 (Cathepsin D (Cat D); average IC50): > 400 µM; IC50 [1, 5]: 0.032 µM; IC50 ([3]; average IC50): 0.018 µM |
| NC1=N[C@](CF)(c2nc(NC(=O)c3nn(C(F)F)cc3Cl)ccc2F)C[C@@H](C(F)(F)F)O1 [Example 135, N-(6-((4S,6S)-2-amino-4-(fluoromethyl)-6-(trifluoromethyl)-5,6-dihydro-4H-1,3-oxazin-4-yl)-5-fluoropyridin-2-yl)-4-chloro-1-(difluoromethyl)-1H-pyrazole-3-carboxamide] | 1170 | 0.031 | 0.052 | 64 | 55 | – |
| COc1cnc(C(=O)Nc2cc(C)c(F)c([C@]3(CF)C[C@@H](C(F)(F)F)OC(N)=N3)c2)cn1 [Example 227, N-(3-((4S,6S)-2-amino-4-(fluoromethyl)-6-(trifluoromethyl)-5,6-dihydro-4H-1,3-oxazin-4-yl)-4-fluoro-5-methylphenyl)-5-methoxypyrazine-2-carboxamide] | – | – | – | 69 | 65 | IC50 (Cathepsin D (Cat D); average): > 400 µM; IC50 ([1]; HEK293, HEK cells, average): 0.023 µM; IC50 ([3]; average): 0.03 µM |

Further lines, with some results ahead:

| IC50 (Cathepsin D (Cat D); [8]) [µM] | IC50 [1, 9] [µM] | IC50 [3, 10] [µM] | SMILES | inhibition in vivo at 10 mg/kg [2, 6] [%] | inhibition in vivo at 10 mg/kg [2, 7] [%] | further results |
| --- | --- | --- | --- | --- | --- | --- |
| > 400 | 0.00367 | 0.00087 | CC#CCOc1cnc(C(=O)Nc2cc(F)c(F)c([C@]3(CF)C[C@@H](C(F)(F)F)OC(N)=N3)c2)cn1 [Example 155, N-(3-((4S,6S)-2-amino-4-(fluoromethyl)-6-(trifluoromethyl)-5,6-dihydro-4H-1,3-oxazin-4-yl)-4,5-difluorophenyl)-5-(but-2-yn-1-yloxy)pyrazine-2-carboxamide] | 26 | 11 | – |
| 2060 | 0.017 | 0.043 | Cc1cc(C(F)F)cnc1C(=O)Nc1cc(F)c(F)c([C@]2(C)C[C@@H](C(F)(F)F)OC(N)=N2)c1 [Example 171, N-(3-((4S,6S)-2-amino-4-methyl-6-(trifluoromethyl)-5,6-dihydro-4H-1,3-oxazin-4-yl)-4,5-difluorophenyl)-5-(difluoromethyl)-3-methylpicolinamide] | 25 | 10 | – |
| 1350 | 0.0052 | 0.024 | C[C@@]1(c2cc(NC(=O)c3ccc(Cl)cn3)cc(F)c2F)C[C@@H](C(F)(F)F)OC(N)=N1 [Example 164, N-(3-((4S,6S)-2-amino-4-methyl-6-(trifluoromethyl)-5,6-dihydro-4H-1,3-oxazin-4-yl)-4,5-difluorophenyl)-5-chloropicolinamide] | 77 | 75 | – |
| 5350 | 0.0098 | 0.078 | COc1cnc(C(=O)Nc2cc(F)c(F)c([C@]3(C)C[C@@H](C(F)(F)F)OC(N)=N3)c2)cn1 [Example 165, N-(3-((4S,6S)-2-amino-4-methyl-6-(trifluoromethyl)-5,6-dihydro-4H-1,3-oxazin-4-yl)-4,5-difluorophenyl)-5-methoxypyrazine-2-carboxamide] | 75 | 76 | – |
| > 400 | 0.0089 | 0.037 | COc1cnc(C(=O)Nc2cc(F)c(F)c([C@]3(C)C[C@@H](C(F)(F)F)OC(N)=N3)c2)c(Cl)c1 [Example 169, N-(3-((4S,6S)-2-amino-4-methyl-6-(trifluoromethyl)-5,6-dihydro-4H-1,3-oxazin-4-yl)-4,5-difluorophenyl)-3-chloro-5-methoxypicolinamide] | 48 | 46 | – |
